Assay results reported in ChEMBL document CHEMBL5236637, “Expanding the Chemical Space of Drug-like Passerini Compounds: Can α-Acyloxy Carboxamides Be Considered Hard Drugs?” (ACS Med Chem Lett, 2022).

How the values were obtained:
[1] = Hydrolytic stability in mouse liver microsomes assessed as esterase-mediated compound hydrolysis by measuring residual substrate activity incubated for 30 mins by LC-HRMS analysis; assay type: ADME, Microsome; conditions: for Stability: microsomes, 0.5 h
[2] = system: Pseudomonas aeruginosa; assay: Antibacterial activity against Pseudomonas aeruginosa ATCC 9027 assessed inhibition zone at 1 mg/ml preincubated at room temperature for 1 hr and measured after 24 hrs by agar well-diffusion method; assay type: functional; conditions: time 25.0 hrs

Compound | Stability [1] | further results
COC(=O)c1c(C)cccc1C | Stable | –
CC(C)(C)NC(=O)COC(=O)c1ccccc1-c1ccccc1 | – | remaining at 0.5 h ([1]; liver microsomes, read-out: Stability): 81%
COC(=O)c1ccccc1 [METHYL BENZOATE] | Unstable | –
GENTAMICIN | – | inhibition zone (IZ) [2]: 22.3 mm
